Patent EP2567959B1, “6-(4-HYDROXY-PHENYL)-3-STYRYL-1H-PYRAZOLO[3,4-B]PYRIDINE-4-CARBOXYLIC ACID AMIDE DERIVATIVES AS KINASE INHIBITORS” (SANOFI, priority 2011, dated 2013)

Biological target: T1, human full-length recombinant PKC βII (Homo sapiens, UniProt P05771)
T1 construct: Active human full-length recombinant PKC βII; purchased Invitrogen GmbH, Darmstadt, Germany
Test: Determination of PKC βII inhibition (Caliper mobility-shift kinase assay, phosphorylation of fluorescein peptide substrate)
Assay type: biochemical
Conditions: final compound concentration 1.14 µM (±0.15 µM), 60 min incubation at 32 °C
Method in brief: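 Active full-length PKC βII in pH 7.4 Hepes with MgCl2, CaCl2, PS, DAG and Triton X-100; substrate/ATP mix held 3 µM fluorescein peptide and 120 µM ATP before addition. Reaction ran 60 min at 32 °C, stopped with EDTA. Mobility-shift fractional turnover gave % inhibition at 1.14 µM (±0.15 µM) final compound.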

T1 sequence (P05771 1-673 isoform P05771-2): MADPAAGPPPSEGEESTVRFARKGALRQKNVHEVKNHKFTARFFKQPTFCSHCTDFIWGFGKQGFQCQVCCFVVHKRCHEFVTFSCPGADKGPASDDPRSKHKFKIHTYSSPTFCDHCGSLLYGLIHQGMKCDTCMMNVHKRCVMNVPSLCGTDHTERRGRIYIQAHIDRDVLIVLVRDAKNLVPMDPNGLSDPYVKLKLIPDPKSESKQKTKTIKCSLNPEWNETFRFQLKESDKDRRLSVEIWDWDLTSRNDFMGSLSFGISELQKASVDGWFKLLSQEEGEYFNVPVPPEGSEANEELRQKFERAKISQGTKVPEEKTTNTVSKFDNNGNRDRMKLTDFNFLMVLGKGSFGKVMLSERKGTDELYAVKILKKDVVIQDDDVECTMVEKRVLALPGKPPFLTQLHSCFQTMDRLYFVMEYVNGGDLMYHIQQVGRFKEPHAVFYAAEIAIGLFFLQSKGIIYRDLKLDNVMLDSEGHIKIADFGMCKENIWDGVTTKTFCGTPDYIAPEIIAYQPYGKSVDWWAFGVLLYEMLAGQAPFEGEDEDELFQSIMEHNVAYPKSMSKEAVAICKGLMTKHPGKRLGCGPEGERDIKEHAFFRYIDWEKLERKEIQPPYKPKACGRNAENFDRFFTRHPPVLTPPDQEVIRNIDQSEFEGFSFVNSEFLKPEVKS

inhibition at 1.14 µM [%]	inhibition at 1.14 µM (1 h) [%]	SMILES
97	–	O=C(c1cc(-c2ccc(O)cc2)nc2[nH]nc(/C=C/c3ccc4c(c3)OCO4)c12)N1CCNCC1 [Example 65, [3-((E)-2-Benzo[1,3]dioxol-5-yl-vinyl)-6-(4-hydroxy-phenyl)-1H-pyrazolo[3,4-b]pyridin-4-yl]-piperazin-1-yl-methanone]
87	–	COc1ccc(/C=C/c2n[nH]c3nc(-c4ccc(O)cc4)cc(C(=O)N4CCNCC4)c23)c(OC)c1 [Example 43, [3-[(E)-2-(2,4-Dimethoxyphenyl)-vinyl]-6-(4-hydroxy-phenyl)-1H-pyrazolo[3,4-b]pyridin-4-yl]-piperazin-1-yl-methanone]
96	–	O=C(c1cc(-c2ccc(O)cc2)nc2[nH]nc(/C=C/c3cccc(F)c3)c12)N1CCNCC1 [Example 71, [3-[(E)-2-(3-Fluoro-phenyl)-vinyl]-6-(4-hydroxy-phenyl)-1H-pyrazolo[3,4-b]pyridin-4-yl]-piperazin-1-yl-methanone]
98	–	Cc1cc(/C=C/c2n[nH]c3nc(-c4ccc(O)cc4)cc(C(=O)N4CCNCC4)c23)ccc1O [Example 47, [3-[(E)-2-(4-Hydroxy-3-methyl-phenyl)-vinyl]-6-(4-hydroxy-phenyl)-1H-pyrazolo[3,4-b]pyridin-4-yl]-piperazin-1-yl-methanone]
98	–	CN(C)C(=O)c1cccc(/C=C/c2n[nH]c3nc(-c4ccc(O)cc4)cc(C(=O)N4CCNCC4(C)C)c23)c1 [Example 34, 3-{(E)-2-[4-(2,2-Dimethyl-piperazine-1-carbonyl)-6-(4-hydroxy-phenyl)-1H-pyrazolo[3,4-b]pyridin-3-yl]-vinyl}-N,N-dimethyl-benzamide]
86	–	O=C(c1cc(-c2ccc(O)cc2)nc2[nH]nc(/C=C/c3ccc(Cl)cc3)c12)N1CCNCC1 [Example 1, [3-[(E)-2-(4-Chloro-phenyl)-vinyl]-6-(4-hydroxy-phenyl)-1 H-pyrazolo[3,4-b]pyridin-4-yl]-piperazin-1-yl-methanone]
96	–	O=C(c1cc(-c2ccc(O)cc2)nc2[nH]nc(/C=C/c3ccccc3)c12)N1CCNC[C@@H]1CO [Example 16, ((R)-2-Hydroxymethyl-piperazin-1-yl)-[6-(4-hydroxy-phenyl)-3-((E)-styryl)-1H-pyrazolo[3,4-b]pyridin-4-yl]-methanone]
100	–	COc1cccc(/C=C/c2n[nH]c3nc(-c4ccc(O)cc4)cc(C(=O)N4CCNCC4)c23)c1 [Example 56, {6-(4-Hydroxy-phenyl)-3-[(E)-2-(3-methoxyphenyl)-vinyl]-1H-pyrazolo[3,4-b]pyridin-4-yl}-piperazin-1-yl-methanone]
–	94	O=C(c1cc(-c2ccc(O)cc2)nc2[nH]nc([C@H]3C[C@@H]3c3ccccc3)c12)N1CCNCC1 (racemic) [Example 18, (±)-[6-(4-Hydroxy-phenyl)-3 trans-(2-phenyl-cyclopropyl)-1 H-pyrazolo[3,4-b]pyridin-4-yl]-piperazin-1-yl-methanone]
55	–	COc1cc(-c2cc(C(=O)N3CCNCC3)c3c(/C=C/c4ccccc4)n[nH]c3n2)ccc1O [Example 9, [6-(4-Hydroxy-3-methoxy-phenyl)-3-((E)-styryl)-1H-pyrazolo[3,4-b]pyridin-4-yl]-piperazin-1-yl-methanone]
100	–	CN(C)Cc1cccc(/C=C/c2n[nH]c3nc(-c4ccc(O)cc4)cc(C(=O)N4CCNCC4)c23)c1 [Example 14, [3-[(E)-2-(3-Dimethylaminomethyl-phenyl)-vinyl]-6-(4-hydroxy-phenyl)-1H-pyrazolo[3,4-b]pyridin-4-yl]-piperazin-1-yl-methanone]
99	–	CCOc1ccc(/C=C/c2n[nH]c3nc(-c4ccc(O)cc4)cc(C(=O)N4CCNCC4)c23)cc1 [Example 67, [3-[(E)-2-(4-Ethoxy-phenyl)-vinyl]-6-(4-hydroxy-phenyl)-1 H-pyrazolo[3,4-b]pyridin-4-yl]-piperazin-1-yl-methanone]
99	–	CC1(C)CN(C(=O)c2cc(-c3ccc(O)cc3)nc3[nH]nc(/C=C/c4ccccc4)c23)CCN1 [Example 4, (3,3-Dimethyl-piperazin-1-yl)-[6-(4-hydroxy-phenyl)-3-((E)-styryl)-1H-pyrazolo[3,4-b]pyridin-4-yl]-methanone]
98	–	CC(=O)c1ccc(/C=C/c2n[nH]c3nc(-c4ccc(O)cc4)cc(C(=O)N4CCNCC4)c23)cc1 [Example 57, 1-(4-{(E)-2-[6-(4-Hydroxy-phenyl)-4-(piperazine-1-carbonyl)-1H-pyrazolo[3,4-b]pyridin-3-yl]-vinyl}-phenyl)-ethanone]
96	–	Cc1cc(O)ccc1-c1cc(C(=O)N2CCNCC2)c2c(/C=C/c3ccccc3)n[nH]c2n1 [Example 7, [6-(4-Hydroxy-2-methyl-phenyl)-3-((E)-styryl)-1H-pyrazolo[3,4-b]pyridin-4-yl]-piperazin-1-yl-methanone]
99	–	CN(C)C(=O)c1ccc(/C=C/c2n[nH]c3nc(-c4ccc(O)cc4)cc(C(=O)N4CCNCC4)c23)cc1 [Example 66, 4-{(E)-2-[6-(4-Hydroxy-phenyl)-4-(piperazine-1-carbonyl)-1H-pyrazolo[3,4-b]pyridin-3-yl]-vinyl}-N,N-dimethyl-benzamide]
97	–	O=C(c1cc(-c2ccc(O)c(F)c2)nc2[nH]nc(/C=C/c3ccccc3)c12)N1CCNCC1 [Example 12, [6-(3-Fluoro-4-hydroxy-phenyl)-3-((E)-styryl)-1H-pyrazolo[3,4-b]pyridin-4-yl]-piperazin-1-yl-methanone]
99	–	N#Cc1cccc(/C=C/c2n[nH]c3nc(-c4ccc(O)cc4)cc(C(=O)N4CCNCC4)c23)c1 [Example 25, 3-{(E)-2-[6-(4-Hydroxy-phenyl)-4-(piperazine-1-carbonyl)-1H-pyrazolo[3,4-b]pyridin-3-yl]-vinyl}-benzonitrile]
39	–	O=C(c1cc(-c2ccc(O)cc2)nc2[nH]nc(/C=C/c3ccc(Cl)cc3Cl)c12)N1CCNCC1 [Example 39, [3-[(E)-2-(2,4-Dichloro-phenyl)-vinyl]-6-(4-hydroxy-phenyl)-1H-pyrazolo[3,4-b]pyridin-4-yl]-piperazin-1-yl-methanone]
99	–	O=C(c1cc(-c2ccc(O)cc2)nc2[nH]nc(/C=C/c3cccc4c3NCC4)c12)N1CCNCC1 [Example 33, [3-[(E)-2-(2,3-Dihydro-1H-indol-7-yl)-vinyl]-6-(4-hydroxyphenyl)-1H-pyrazolo[3,4-b]-pyridin-4-yl]-piperazin-1-yl-methanone]
94	–	CC(C)c1ccc(/C=C/c2n[nH]c3nc(-c4ccc(O)cc4)cc(C(=O)N4CCNCC4)c23)cc1 [Example 51, {6-(4-Hydroxy-phenyl)-3-[(E)-2-(4-isopropyl-phenyl)-vinyl]-1H-pyrazolo[3,4-b]pyridin-4-yl}-piperazin-1-yl-methanone]
110	–	O=C(c1cc(-c2ccc(O)cc2Cl)nc2[nH]nc(/C=C/c3ccccc3)c12)N1CCNCC1 [Example 13, [6-(2-Chloro-4-hydroxy-phenyl)-3-((E)-styryl)-1 H-pyrazolo[3,4-b]pyridin-4-yl]-piperazin-1-yl-methanone]
97	–	O=C(c1cc(-c2ccc(O)cc2)nc2[nH]nc(/C=C/c3ccccc3)c12)N1CCNC2(CCCC2)C1 [Example 79, (6,9-Diaza-spiro-[4.5]dec-9-yl)-[6-(4-hydroxy-phenyl)-3-((E)-styryl)-1H-pyra-zolo[3,4-b]py-ridin-4-yl]-methanone]
99	–	C[C@H]1CNCCN1C(=O)c1cc(-c2ccc(O)cc2F)nc2[nH]nc(/C=C/c3ccccc3)c12 [Example 11, [6-(2-Fluoro-4-hydroxy-phenyl)-3-((E)-styryl)-1H-pyrazolo[3,4-b]pyridin-4-yl]-((S)-2-methyl-piperazin-1-yl)-methanone]
87	–	CC[C@H]1CNCCN1C(=O)c1cc(-c2ccc(O)cc2)nc2[nH]nc(/C=C/c3ccccc3)c12 [Example 10, ((S)-2-Ethyl-piperazin-1-yl)-[6-(4-hydroxy-phenyl)-3-((E)-styryl)-1H-pyrazolo[3,4-b]pyridin-4-yl]-methanone]
115	–	O=C(c1cc(-c2ccc(O)cc2)nc2[nH]nc(/C=C/c3cccc(N4CCCC4=O)c3)c12)N1CCNCC1 [Example 20, 1-(3-{(E)-2-[6-(4-Hydroxy-phenyl)-4-(piperazine-1-carbonyl)-1H-pyrazolo[3,4-b]pyridin-3-yl]-vinyl}-phenyl)-pyrrolidin-2-one]
90	–	O=C(c1cccnc1)N1CCN(C(=O)c2cc(-c3ccc(O)cc3)nc3[nH]nc(/C=C/c4ccccc4)c23)CC1 [Example 83, [6-(4-Hydroxy-phenyl)-3-((E)-styryl)-1H-pyra-zolo[3,4-b]pyri-din-4-yl]-[4-(pyridine-3-carbonyl)-piperazin-1-yl]-methanone]
97	–	O=C(c1cc(-c2ccc(O)cc2)nc2[nH]nc(/C=C/c3ccccc3)c12)N1CCNCC1 [Example 2, [6-(4-Hydroxy-phenyl)-3-((E)-styryl)-1H-pyrazolo[3,4-b]pyridin-4-yl]-piperazin-1-yl-methanone]
56	–	COC(=O)N1CCN(C(=O)c2cc(-c3ccc(O)cc3)nc3[nH]nc(/C=C/c4ccccc4)c23)CC1 [Example 82, 4-[6-(4-Hydroxy-phenyl)-3-((E)-styryl)-1H-pyra-zolo[3,4-b]pyri-dine-4-carbonyl]-piperazine-1-carboxylic acid methyl ester]
